ChEMBL document CHEMBL4196044, “Design, synthesis and ability of non-gold complexed substituted purine derivatives to inhibit LPS-induced inflammatory response” (Eur J Med Chem, 2018)
Calls of active or inactive are those of the source. No cut-off for these calls is given here.

Assays:
[1] = test system: RAW264.7; test: Anti-inflammatory activity in mouse RAW264.7 cells assessed as inhibition of LPS-induced TNF-alpha production at 10 uM pretreated for 2 hrs followed by LPS stimulation measured after over night incubation by ELISA relative to control; format: functional
[2] = Cytotoxicity against human THP1 cells assessed as cell viability at 10 uM by CellTiter-Glo luminescent assay relative to control; format: cell-based; conditions: THP-1 cells, read-out: Activity
[3] = test system: RAW264.7; test: Anti-inflammatory activity in mouse RAW264.7 cells assessed as inhibition of LPS-induced IL-1beta production at 10 uM pretreated for 2 hrs followed by LPS stimulation measured after over night incubation by ELISA relative to control; format: functional
[4] = test system: RAW264.7; test: Anti-inflammatory activity in mouse RAW264.7 cells assessed as inhibition of LPS-induced IL-6 production pretreated for 2 hrs followed by LPS stimulation measured after over night incubation by ELISA; format: functional, cell-based
[5] = test system: Mus musculus; test: Anti-inflammatory activity in ICR mouse assessed as inhibition of carrageenan-induced hind paw edema volume at 10 mg/kg administered via gavage treated for 30 mins post carrageenan challenge measured after 2 to 3 hrs; format: functional, organism-based
[6] = test system: RAW264.7; test: Anti-inflammatory activity in mouse RAW264.7 cells assessed as inhibition of LPS-induced COX-2 mRNA expression at 10 uM after 24 hrs by RT-qPCR analysis; format: functional, cell-based
[7] = test system: RAW264.7; test: Inhibition of LPS-induced JNK phosphorylation in mouse RAW264.7 cells at 10 uM measured after 24 hrs by Western blot method; format: cell-based
[8] = test system: Mus musculus; test: Anti-inflammatory activity in ICR mouse assessed as inhibition of carrageenan-induced hind paw edema volume at 10 mg/kg administered via gavage treated for 30 mins post carrageenan challenge measured after 3 to 5 hrs; format: functional, organism-based
[9] = test system: RAW264.7; test: Anti-inflammatory activity in mouse RAW264.7 cells assessed as inhibition of LPS-induced iNOS mRNA expression at 10 uM after 24 hrs by RT-qPCR analysis; format: functional, cell-based
[10] = target: T1, NF-kappa-B inhibitor alpha (Mus musculus) (UniProt Q9Z1E3); test: Inhibition of LPS-induced IkappaBalpha phosphorylation in mouse RAW264.7 cells at 10 uM measured after 24 hrs by Western blot method; format: cell-based
T1 sequence (whole entry): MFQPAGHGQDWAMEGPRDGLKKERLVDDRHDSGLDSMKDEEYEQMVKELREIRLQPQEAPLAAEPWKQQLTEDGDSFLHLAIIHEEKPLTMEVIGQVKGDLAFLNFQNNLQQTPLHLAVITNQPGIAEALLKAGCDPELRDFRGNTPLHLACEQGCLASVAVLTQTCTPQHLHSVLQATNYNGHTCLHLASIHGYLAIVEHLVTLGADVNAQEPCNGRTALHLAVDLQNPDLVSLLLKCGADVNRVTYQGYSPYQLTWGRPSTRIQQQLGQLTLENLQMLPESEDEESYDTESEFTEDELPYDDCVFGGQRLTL

[11] = target: Transcription factor p65 (Mus musculus) (UniProt Q04207); test: Inhibition of LPS-induced NF-kappaB-p65 nuclear translocation in mouse RAW264.7 cells at 10 uM by DAPI staining-based immunofluorescence analysis; format: cell-based
Chain of Transcription factor p65 (Mus musculus) (Q04207 whole entry): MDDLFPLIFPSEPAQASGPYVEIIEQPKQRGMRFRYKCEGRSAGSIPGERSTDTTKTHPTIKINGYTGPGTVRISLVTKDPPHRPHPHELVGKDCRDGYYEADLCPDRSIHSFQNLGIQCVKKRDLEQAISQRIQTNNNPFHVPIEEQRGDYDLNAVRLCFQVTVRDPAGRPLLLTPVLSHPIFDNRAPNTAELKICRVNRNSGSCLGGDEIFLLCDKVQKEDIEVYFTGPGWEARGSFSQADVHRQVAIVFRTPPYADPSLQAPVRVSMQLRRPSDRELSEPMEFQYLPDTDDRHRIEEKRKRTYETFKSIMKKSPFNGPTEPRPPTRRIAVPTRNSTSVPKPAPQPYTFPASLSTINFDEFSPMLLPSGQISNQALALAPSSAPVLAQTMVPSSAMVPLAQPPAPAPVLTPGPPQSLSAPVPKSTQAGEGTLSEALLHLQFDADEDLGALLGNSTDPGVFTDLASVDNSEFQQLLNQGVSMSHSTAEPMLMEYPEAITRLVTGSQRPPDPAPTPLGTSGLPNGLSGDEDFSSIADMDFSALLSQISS

[12] = test system: RAW264.7; test: Anti-inflammatory activity in mouse RAW264.7 cells assessed as inhibition of LPS-induced IL-1beta production pretreated for 2 hrs followed by LPS stimulation measured after over night incubation by ELISA; format: functional, cell-based
[13] = test system: RAW264.7; test: Inhibition of LPS-induced ERK phosphorylation in mouse RAW264.7 cells at 10 uM measured after 24 hrs by Western blot method; format: cell-based
[14] = target: MAP kinase p38 (Mus musculus) (UniProt P47811+O08911+Q9WUI1+Q9Z1B7); test: Inhibition of LPS-induced p38 phosphorylation in mouse RAW264.7 cells at 10 uM measured after 24 hrs by Western blot method; format: cell-based
[15] = test system: RAW264.7; test: Anti-inflammatory activity in mouse RAW264.7 cells assessed as inhibition of LPS-induced TNF-alpha production pretreated for 2 hrs followed by LPS stimulation measured after over night incubation by ELISA; format: functional, cell-based
[16] = test system: RAW264.7; test: Anti-inflammatory activity in mouse RAW264.7 cells assessed as inhibition of LPS-induced PGE2 production pretreated for 2 hrs followed by LPS stimulation measured after over night incubation by ELISA; format: functional, cell-based
[17] = test system: RAW264.7; test: Anti-inflammatory activity in mouse RAW264.7 cells assessed as inhibition of LPS-induced NO release pretreated for 2 hrs followed by LPS stimulation measured after 48 hrs […]; format: functional, cell-based
[18] = test system: Mus musculus; test: Anti-inflammatory activity in ICR mouse assessed as inhibition of carrageenan-induced hind paw edema volume at 10 mg/kg administered via gavage treated for 30 mins post carrageenan challenge measured after 2 to 5 hrs; format: functional, organism-based

CCCn1cnc2c(NCc3ccccc3Cl)ncnc21
inhibition at 10 µM [1]: 22.4% | viability at 10 µM [2]: 103% | inhibition at 10 µM [3]: 14.1%

Clc1ccccc1CNc1ncnc2nc[nH]c12
viability at 10 µM [2]: 93.8%

COc1ccc(Nc2ncnc3[nH]cnc23)cc1
inhibition at 10 µM [1]: 25.6% | viability at 10 µM [2]: 100% | inhibition at 10 µM [3]: 7.29%

Fc1cc(Nc2ncnc3[nH]cnc23)ccc1Cl
inhibition [4]: Dose-dependent effect | inhibition [5]: Active | inhibition [6]: Active | inhibition [7]: Active | inhibition [8]: Active | inhibition [9]: Active | inhibition [10]: Active | inhibition [11]: Active | inhibition at 10 µM [1]: 71% | inhibition [12]: Dose-dependent effect | viability at 10 µM [2]: 99.3% | inhibition [13]: Active | inhibition [14]: Active | inhibition [15]: Dose-dependent effect | inhibition [16]: Dose-dependent effect | IC50 [17]: 4.43 µM | inhibition at 10 µM [3]: 84.2%

COc1cccc(Nc2ncnc3[nH]cnc23)c1
inhibition [4]: Dose-dependent effect | inhibition [5]: Active | inhibition [6]: Active | inhibition [7]: Active | inhibition [9]: Active | inhibition [10]: Active | inhibition [11]: Active | inhibition at 10 µM [1]: 69.8% | inhibition [12]: Dose-dependent effect | viability at 10 µM [2]: 90.7% | inhibition [13]: Active | inhibition [14]: Active | inhibition [15]: Dose-dependent effect | inhibition [16]: Dose-dependent effect | IC50 [17]: 3.38 µM | inhibition at 10 µM [3]: 88.9%

Fc1ccc(CNc2ncnc3nc[nH]c23)cc1
inhibition at 10 µM [1]: 22.4% | viability at 10 µM [2]: 92.9% | inhibition at 10 µM [3]: 14.6%

COc1cc(Cn2cnc3c(NCc4ccccc4Cl)ncnc32)cc(OC)c1
inhibition at 10 µM [1]: 9.65% | viability at 10 µM [2]: 90.2% | inhibition at 10 µM [3]: 19.8%

Oc1ccc(Nc2ncnc3[nH]cnc23)cc1
inhibition at 10 µM [1]: 18.5% | viability at 10 µM [2]: 95.9% | inhibition at 10 µM [3]: 12.4%

c1nc2nc[nH]c(N3CCCC3)c-2n1
inhibition at 10 µM [1]: 11.7% | viability at 10 µM [2]: 91.1% | inhibition at 10 µM [3]: -9.43%

CC(=O)NS(=O)(=O)c1ccc(Nc2ncnc3[nH]cnc23)cc1
inhibition at 10 µM [1]: 12.4% | viability at 10 µM [2]: 90.7% | inhibition at 10 µM [3]: 16.1%

Clc1ccc(Nc2ncnc3[nH]cnc23)cc1
inhibition at 10 µM [1]: 16.1% | viability at 10 µM [2]: 92% | inhibition at 10 µM [3]: 28.6%

c1coc(CNc2ncnc3[nH]cnc23)c1 [KINETIN]
inhibition at 10 µM [1]: 45.9% | viability at 10 µM [2]: 107% | inhibition at 10 µM [3]: -19.5%

Clc1cccc(Nc2ncnc3[nH]cnc23)c1
inhibition at 10 µM [1]: 18.5% | viability at 10 µM [2]: 91% | inhibition at 10 µM [3]: 12.2%

Clc1ccccc1CNc1[nH]cnc2ncnc1-2
inhibition [4]: Dose-dependent effect | inhibition [5]: Active | inhibition [6]: Active | inhibition [7]: Active | inhibition [9]: Active | inhibition [10]: Active | inhibition [18]: Active | inhibition [11]: Active | inhibition at 10 µM [1]: 86.2% | inhibition [12]: Dose-dependent effect | inhibition [13]: Active | inhibition [14]: Active | inhibition [15]: Dose-dependent effect | inhibition [16]: Dose-dependent effect | IC50 [17]: 3.54 µM | inhibition at 10 µM [3]: 89%
